Data as given in patent EP0728738A1, “Tetralinyl- and indanyl-ethylamides having melatonergic activity” (BRISTOL-MYERS SQUIBB COMPANY, priority 1995, dated 1996).
pIC50: −log10 of the molar value.

These molecules were tested against ML1 Receptor (assay: Melatonergic binding at the ML1 receptor in rabbit tissue (2-[125I]-iodomelatonin displacement, parietal cortex homogenate)). Settings: 2-[125I]-iodomelatonin 44pM, 37°C for 1 hour, read-out: Binding Affinity IC50.
Protocol: Example 46: Measurement of Melatonergic Binding at the ML1 Receptor in Rabbit Tissue
• 1. Reagents • (a) 50mM Tris buffer containing 12.5 mM MgCl2, and 2mM EDTA (pH 7.4 at 37 °C). • (b) Wash buffer: 20mM Tris base containing 2mM MgCl2 (pH 7.4 at room temperature). • (c) 6-Chloromelatonin (10-^5M final concentration). • (d) 2-[^125I]-iodomelatoin, 44pM final concentration Source: NEN • 2. Tissue preparation. Male New Zealand white rabbits (Hazelton Research) are decapitated, the brains are rapidly removed and chilled. The parietal cortex is crudely dissected and frozen on dry ice with tissue stored at - 80 °C until assayed. Tissue is weighed and thawed in 20 mls ice cold Tris buffer (a) and homogenized by treatment with a polytron for 10 seconds at setting 17. Ice cold Tris (a) is added to a volume of 40 mls. The homogenate is centrifuged. The resulting supernatant is decanted and discarded. The pellet is rehomogenized in an additional 20 mls of Tris, diluted and centrifuged. The supernatant is decanted and discarded. The resulting pellet is homogenized in 20 volumes of Tris per gram of original tissue (a 1:20 homogenate), chilled, and held on ice until assayed. • 3. Incubation: 37 °C for 1 hour. Reaction is terminated by filtration. • 4. […] References: Stankov, B., Cozzi, B., Lucini, V., Fumagalli, P., Scaglione, F. and F. Fraschini. Characterization and mapping of melatonin receptors in the brain of three mammalian species: Rabbit, horse, and sheep. Neuroendocrinology 53: 214-221, 1991.

pIC50	SMILES
> 7.00	COCC(=O)NCCC1CCCc2ccc(OC)cc21 (single isomer, unassigned; (+)) [Example 39, (+)-N-[2-(1,2,3,4-tetrahydro-7-methoxynaphthalen-1-yl)ethyl] methoxyacetamide]
> 7.00	CCCC(=O)NCCC1CCc2ccc(OC)cc21 (single isomer, unassigned; (-)) [Example 36]
> 7.00	COCC(=O)NCCC1CCCc2ccc(OC)cc21 (single isomer, unassigned; (-)) [Example 38, (-)-N-[2-(1,2,3,4-tetrahydro-7-methoxynaphthalen-1-yl)ethyl] methoxyacetamide]
> 7.00	CCCC(=O)NCCC1CCCc2ccc(OC)cc21 (centres unmarked) [Example 1, N-[2-(7-Methoxy-1,2,3,4-tetrahydro-1-naphthalenyl)ethyl]butanamide]
> 7.00	COc1ccc2c(c1)C(CCNC(=O)C1CC1)CCC2 (centres unmarked) [Example 3, N-[2-(7-Methoxy-1,2,3,4-tetrahydro-1-naphthalenyl)ethyl]cyclopropane carboxamide]
> 7.00	COc1ccc2c(c1)C(CCNC(C)=O)CCC2 (centres unmarked) [Example 4, N-[2-(7-Methoxy-1,2,3,4-tetrahydro-1-naphthalenyl)ethyl]acetamide]
> 7.00	COCC(=O)NCCC1CCCc2ccc(OC)cc21 (centres unmarked) [Example 16, N-[2-(7-Methoxy-1,2,3,4-tetrahydro-1-naphthalenyl)ethyl]-2-methoxyacetamide]
> 7.00	CCCC(=O)NCCC1CCc2ccc(OC)cc21 (centres unmarked) [Example 22, N-[2-(2,3-Dihydro-6-methoxy-1H-inden-1-yl)-ethyl]butanamide]
> 7.00	COc1ccc2c(c1)C(CCNC(=O)C1CC1)CC2 (centres unmarked) [Example 24, N-[2-(2,3-Dihydro-6-methoxy-1H-inden-1-yl)-ethyl]cyclopropane carboxamide]
> 7.00	COc1ccc2c(c1)C(CCNC(C)=O)CC2 (centres unmarked) [Example 25, N-[2-(2,3-Dihydro-6-methoxy-1H-inden-1-yl)-ethyl]acetamide]
> 7.00	CCCC(=O)NCCC1CCc2ccc(F)cc21 (centres unmarked) [Example 31, N-[2-(6-Fluoro-2,3-dihydro-1H-inden-1-yl)ethyl]butanamide]
6.30 to 7.00	COc1ccc2c(c1)C(CCNC(C)=O)CC2(C)C (centres unmarked) [Example 32, N-[2-(2,3-Dihydro-6-methoxy-3,3-dimethyl-1H-inden-1-yl)ethyl]acetamide]
6.30 to 7.00	CCCC(=O)NCCC1CC(C)(C)c2ccc(OC)cc21 (centres unmarked) [Example 33, N-[2-(2,3-Dihydro-6-methoxy-3,3-dimethyl-1H-inden-1-yl)ethyl]butanamide]
> 7.00	CCCC(=O)NCCC1CCc2ccc(C(=O)OC)cc21 (centres unmarked) [Example 42, N-[2-(2,3-Dihydro-6-methoxycarbonyl-1H-inden-1-yl)ethyl]butanamide]

These molecules were tested against T1, Human Melatonin Receptor ML1A (Homo sapiens, UniProt P48039) (assay: Melatonergic binding at the human melatonin receptor ML1A (2-[125I]-iodomelatonin displacement, membranes of transfected COS-1 cells)). Settings: human ML1A in COS-1 cell membranes, 2-[125I]-iodomelatonin 100 pM, 37°C for 1 hour; read-out: Binding Affinity IC50.
T1 construct: expressed in transfected cells; host or cells: COS-1 cells, pcDNAI vector, DEAE-dextran transfection
T1 sequence (P48039 whole entry): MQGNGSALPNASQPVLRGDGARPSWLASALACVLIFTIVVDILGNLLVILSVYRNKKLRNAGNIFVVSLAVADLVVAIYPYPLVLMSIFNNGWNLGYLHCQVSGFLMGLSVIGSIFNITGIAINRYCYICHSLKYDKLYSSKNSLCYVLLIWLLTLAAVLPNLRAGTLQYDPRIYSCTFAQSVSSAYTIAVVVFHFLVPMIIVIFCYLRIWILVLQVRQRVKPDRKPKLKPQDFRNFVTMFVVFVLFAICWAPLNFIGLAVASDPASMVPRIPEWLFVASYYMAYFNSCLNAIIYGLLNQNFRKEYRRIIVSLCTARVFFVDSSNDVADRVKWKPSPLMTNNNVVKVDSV
Protocol: Example 47: Measurement of Melatonergic Binding at the Human Melatonin Receptor ML1A
• 1. Reagents: • (a) 50mM Tris buffer containing 12.5 mM MgCl2, and 2mM EDTA, pH 7.4 at 37 °C with concentrated HCl. • (b) Wash buffer: 20mM Tris base containing 2mM MgCl2. pH 7.4 at room temperature. • (c) 10^-4M 6-Chloromelatonin (10-^5M final concentration). • (d) 2-[^125I]-iodomelatonin, 100 pM final concentration Source: NEN • 2. Membrane preparation: The cDNA (human ML1A) in pcDNAI was introduced into COS-1 cells by the DEAE-dextran method. Three days after transfection, the media was removed, the plates washed with phosphate buffered saline, the cells removed using Hank's balanced salt solution and pelleted. For preparing membrane homogenates, pellets are thawed on ice, and resuspended in TME buffer, 50 mM Tris base, 12.5 mM MgCl2, 1 mM EDTA (pH7.4 at 37°C with concentrated HCL), supplemented with 10 µg/ml aprotinin and leupeptin, and 100 µM phenylmethlysulfonylfluoride. The cells were then homogenized using a dounce homogenizer, and centrifuged. The resulting pellet was resuspended with a dounce homogenizer in TME and frozen. On the day of assay, the small aliquot was thawed on ice and resuspended in TME buffer. • 3. Incubation: 37 °C for 1 hour. Reaction is terminated by filtration. • 4. […] Reference: Reppert, S. M., Weaver, D. R., and Ebisawa, R. (1994), Neuron, 13, 1177-1185.

pIC50	SMILES
6.30 to 7.00	CCCC(=O)NCCC1CCc2ccc(OC)cc21 (single isomer, unassigned; (+)) [Example 37]
≤ 6.30	COCC(=O)NCCC1CCCc2ccc(OC)cc21 (single isomer, unassigned; (+)) [Example 39, (+)-N-[2-(1,2,3,4-tetrahydro-7-methoxynaphthalen-1-yl)ethyl] methoxyacetamide]
> 7.00	CCCC(=O)NCCC1CCc2ccc(OC)cc21 (single isomer, unassigned; (-)) [Example 36]
> 7.00	COCC(=O)NCCC1CCCc2ccc(OC)cc21 (single isomer, unassigned; (-)) [Example 38, (-)-N-[2-(1,2,3,4-tetrahydro-7-methoxynaphthalen-1-yl)ethyl] methoxyacetamide]
> 7.00	CCCCCCCCCCCCOc1ccc2c(c1)C(CCNC(=O)CCC)CC2 (centres unmarked) [Example 43, N-[2-(2,3-Dihydro-6-dodecyloxy-1H-inden-1-yl)ethyl]butanamide]
> 7.00	CCCC(=O)NCCC1CCc2ccc(OC(F)F)cc21 (centres unmarked) [Example 45, N-[2-(6-Difluoromethoxy-2,3-dihydro-1H-inden-1-yl)ethyl]butanamide]
